Results reported in ChEMBL document CHEMBL5543167, “Design, Synthesis, and Biological Evaluation of Novel EGFR PROTACs Targeting C797S Mutation” (J Med Chem, 2024).
Active and inactive are the calls of the source. The rule behind the calls is not given here.

How the values were obtained:
[1] = system: Protein cereblon/Epidermal growth factor receptor (Homo sapiens), P00533+Q96SW2 [L858R,T790M,C797S]; assay: PROTAC activity at CRBN/EGFR L858R/T790M/C797S mutant in human H1975-TM cells assessed as induction of EGFR degradation by measuring maximal efficacy at 300 nM incubated for 24 hrs by Western blot analysis relative to control; type: cell-based
[2] = Antitumor activity against human H1975-TM cells xenografted in BALB/c nude mouse assessed as tumor growth inhibition at 25 mg/kg, po administered once daily for 31 days relative to control; type: functional; conditions: 744 h, time 31 day, read-out: TGI
[3] = target: Epidermal growth factor receptor (Homo sapiens) (UniProt P00533); assay: Inhibition of EGFR signaling in human H1975-TM cells harboring EGFR L858R/T790M/C797S mutant assessed as reduction in EGFR phosphorylation by Western blot analysis; type: cell-based; conditions: dose 1.2-300 nM
Epidermal growth factor receptor (Homo sapiens), sequence (P00533 whole entry): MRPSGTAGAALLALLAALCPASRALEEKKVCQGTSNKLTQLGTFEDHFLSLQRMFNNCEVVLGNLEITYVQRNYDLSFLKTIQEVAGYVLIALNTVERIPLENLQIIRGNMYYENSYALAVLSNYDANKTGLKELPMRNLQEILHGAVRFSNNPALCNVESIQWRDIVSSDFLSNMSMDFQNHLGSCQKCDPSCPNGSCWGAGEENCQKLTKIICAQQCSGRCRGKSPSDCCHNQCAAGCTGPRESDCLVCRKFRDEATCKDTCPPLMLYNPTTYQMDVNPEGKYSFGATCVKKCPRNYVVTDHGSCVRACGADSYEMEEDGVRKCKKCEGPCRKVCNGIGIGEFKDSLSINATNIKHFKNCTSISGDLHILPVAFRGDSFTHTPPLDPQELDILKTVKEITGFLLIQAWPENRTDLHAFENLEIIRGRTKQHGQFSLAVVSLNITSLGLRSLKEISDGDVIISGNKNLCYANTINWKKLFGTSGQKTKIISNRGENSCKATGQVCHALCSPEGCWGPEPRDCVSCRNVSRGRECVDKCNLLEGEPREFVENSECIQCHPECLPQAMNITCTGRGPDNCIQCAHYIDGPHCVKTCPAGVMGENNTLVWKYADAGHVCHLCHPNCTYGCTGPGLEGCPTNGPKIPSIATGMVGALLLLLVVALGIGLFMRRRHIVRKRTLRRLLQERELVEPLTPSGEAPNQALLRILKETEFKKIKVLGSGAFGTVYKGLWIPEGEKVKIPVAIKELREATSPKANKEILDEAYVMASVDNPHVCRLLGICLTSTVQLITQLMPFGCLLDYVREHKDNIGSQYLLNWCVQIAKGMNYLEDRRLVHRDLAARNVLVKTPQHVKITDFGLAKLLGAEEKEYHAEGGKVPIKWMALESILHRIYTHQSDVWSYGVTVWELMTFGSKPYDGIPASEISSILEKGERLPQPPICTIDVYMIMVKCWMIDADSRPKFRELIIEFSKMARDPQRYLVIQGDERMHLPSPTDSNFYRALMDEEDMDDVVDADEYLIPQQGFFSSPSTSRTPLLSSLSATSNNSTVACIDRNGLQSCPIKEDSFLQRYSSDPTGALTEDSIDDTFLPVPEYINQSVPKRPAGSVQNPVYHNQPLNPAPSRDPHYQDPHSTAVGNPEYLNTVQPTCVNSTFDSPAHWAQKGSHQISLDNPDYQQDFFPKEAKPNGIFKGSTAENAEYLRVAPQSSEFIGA

[4] = target: Aurora kinase B (Homo sapiens) (UniProt Q96GD4); assay: Induction of AURKB degradation in human H1975-TM cells at 50 nM incubated for 24 hrs; type: cell-based
Aurora kinase B (Homo sapiens), sequence (Q96GD4 whole entry): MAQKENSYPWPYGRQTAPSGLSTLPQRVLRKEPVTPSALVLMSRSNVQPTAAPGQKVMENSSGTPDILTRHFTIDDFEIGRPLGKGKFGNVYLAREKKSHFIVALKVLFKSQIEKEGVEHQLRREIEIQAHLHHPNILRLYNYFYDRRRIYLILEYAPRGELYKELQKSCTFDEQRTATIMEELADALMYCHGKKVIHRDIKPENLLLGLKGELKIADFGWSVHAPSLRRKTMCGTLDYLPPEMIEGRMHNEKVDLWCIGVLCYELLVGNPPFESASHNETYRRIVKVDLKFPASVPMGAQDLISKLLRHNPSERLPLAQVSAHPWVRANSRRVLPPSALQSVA

[5] = system: Protein cereblon/Epidermal growth factor receptor (Homo sapiens), P00533+Q96SW2 [L858R,T790M,C797S]; assay: PROTAC activity at CRBN/EGFR L858R/T790M/C797S mutant in human H1975-TM cells assessed as induction of EGFR degradation by measuring remaining activity at 50 nM incubated for 24 hrs by Western blot analysis (reference value: 100%); type: cell-based
[6] = Toxicity in BALB/c nude mouse xenografted with human H1975-TM cells assessed as spleen lesions at 25 to 100 mg/kg, po administered once daily for 31 days by Hematoxylin and eosin staining based analysis; type: organism-based; conditions: in vivo, 744 h, dose 25-100 mg/kg, time 31 day
[7] = Oral bioavailability in Sprague-Dawley rat at 50 mg/kg measured after 24 hrs by LC-MS/MS analysis; type: ADME, organism-based; conditions: in vivo
Mus musculus = assay: In vivo inhibition of EGFR signaling in BALB/c nude mouse xenografted with human […] cells assessed as reduction in EGFR phosphorylation at 25 to 100 mg/kg, po administered once daily for 31 days by Western blot analysis; type: functional, organism-based; conditions: dose 25-100 mg/kg, time 31.0 day
[8] = target: Epidermal growth factor receptor (Homo sapiens, UniProt P00533, C797S/L858R/T790M); assay: Binding affinity to EGFR L858R/T790M/C797S mutant (unknown origin) assessed as dissociation constant incubated for 10 mins under dark condition by MST analysis
Epidermal growth factor receptor, sequence (P00533 25-1210 T790M/C797S/L858R limits assumed): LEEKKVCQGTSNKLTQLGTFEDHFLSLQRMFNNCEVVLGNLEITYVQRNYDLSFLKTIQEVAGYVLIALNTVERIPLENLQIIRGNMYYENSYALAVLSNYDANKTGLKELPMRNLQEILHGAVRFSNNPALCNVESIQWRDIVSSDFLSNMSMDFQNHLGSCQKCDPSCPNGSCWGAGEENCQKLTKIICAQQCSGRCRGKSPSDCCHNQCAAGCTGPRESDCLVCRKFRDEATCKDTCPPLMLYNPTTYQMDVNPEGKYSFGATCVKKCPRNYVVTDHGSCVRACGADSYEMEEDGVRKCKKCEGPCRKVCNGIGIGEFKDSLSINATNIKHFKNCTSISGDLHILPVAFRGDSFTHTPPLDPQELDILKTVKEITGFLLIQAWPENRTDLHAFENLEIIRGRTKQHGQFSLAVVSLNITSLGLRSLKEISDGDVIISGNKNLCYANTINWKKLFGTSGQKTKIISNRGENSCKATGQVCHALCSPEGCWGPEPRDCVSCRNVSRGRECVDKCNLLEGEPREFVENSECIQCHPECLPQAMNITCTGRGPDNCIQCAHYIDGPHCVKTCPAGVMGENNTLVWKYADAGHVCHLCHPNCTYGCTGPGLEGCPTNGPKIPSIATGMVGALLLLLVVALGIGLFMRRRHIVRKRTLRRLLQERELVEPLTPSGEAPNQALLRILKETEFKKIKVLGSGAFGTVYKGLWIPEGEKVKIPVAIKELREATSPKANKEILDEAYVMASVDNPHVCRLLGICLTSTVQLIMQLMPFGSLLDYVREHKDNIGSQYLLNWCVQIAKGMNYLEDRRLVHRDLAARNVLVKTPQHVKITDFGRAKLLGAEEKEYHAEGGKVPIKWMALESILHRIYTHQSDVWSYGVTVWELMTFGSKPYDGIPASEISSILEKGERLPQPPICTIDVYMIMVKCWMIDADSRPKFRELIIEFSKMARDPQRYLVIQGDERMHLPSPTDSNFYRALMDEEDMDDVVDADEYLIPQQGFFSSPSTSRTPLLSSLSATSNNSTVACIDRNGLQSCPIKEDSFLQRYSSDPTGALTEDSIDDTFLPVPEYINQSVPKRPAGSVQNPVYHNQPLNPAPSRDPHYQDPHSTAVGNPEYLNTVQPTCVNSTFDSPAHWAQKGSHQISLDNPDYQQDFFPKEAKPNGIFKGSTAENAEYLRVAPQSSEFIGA

[9] = target: Protein cereblon/Epidermal growth factor receptor (Homo sapiens, UniProt P00533+Q96SW2); assay: (§1) PROTAC activity at CRBN/EGFR exon 19 deletion mutant in human PC-9 cells assessed as induction of EGFR degradation incubated for 24 hrs by Western blot analysis; type: cell-based
Protein cereblon/Epidermal growth factor receptor, sequence (P00533 whole entry, looked up, stated change not applied): as the sequence (P00533 whole entry) above
Protein cereblon/Epidermal growth factor receptor, sequence (Q96SW2 whole entry, looked up, stated change not applied): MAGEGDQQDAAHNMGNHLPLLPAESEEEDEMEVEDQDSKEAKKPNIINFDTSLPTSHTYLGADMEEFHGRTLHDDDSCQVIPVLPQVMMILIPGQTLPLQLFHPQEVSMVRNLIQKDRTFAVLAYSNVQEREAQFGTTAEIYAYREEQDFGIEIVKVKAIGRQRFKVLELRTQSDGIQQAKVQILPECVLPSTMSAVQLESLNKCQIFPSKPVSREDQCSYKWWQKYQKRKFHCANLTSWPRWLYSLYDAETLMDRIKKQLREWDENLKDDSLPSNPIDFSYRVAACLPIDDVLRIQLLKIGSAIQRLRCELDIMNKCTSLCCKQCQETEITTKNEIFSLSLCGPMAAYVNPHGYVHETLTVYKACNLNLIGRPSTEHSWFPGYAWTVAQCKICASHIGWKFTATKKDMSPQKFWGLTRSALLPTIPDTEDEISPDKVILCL

[10] = system: Protein cereblon/Epidermal growth factor receptor (Homo sapiens), P00533+Q96SW2 [UNDEFINED MUTATION]; assay: as §1; type: cell-based
H1975-TM [11] = assay: Inhibition of colony formation in human H1975-TM cells harboring EGFR L858R/T790M/C797S mutant at 3.7 to 100 nM incubated for 14 days by crystal violet staining based analysis; type: functional, cell-based; conditions: dose 3.7-100 nM, time 14.0 day
[12] = system: Protein cereblon/Epidermal growth factor receptor (Homo sapiens), P00533+Q96SW2 [L858R,T790M,C797S]; assay: PROTAC activity at CRBN/EGFR L858R/T790M/C797S mutant in human H1975-TM cells assessed as induction of EGFR degradation by measuring remaining activity at 100 nM preincubated for 24 hrs followed by compound washout and measured after 6 hrs by Western blot analysis (reference value: 100%); type: cell-based
[13] = system: Protein cereblon/Epidermal growth factor receptor (Homo sapiens), P00533+Q96SW2 [L858R,T790M,C797S]; assay: (§2) PROTAC activity at CRBN/EGFR L858R/T790M/C797S mutant in human H1975-TM cells assessed as induction of EGFR degradation by measuring remaining activity at 50 nM preincubated with MG132 for 6 hrs followed by compound addition and measured after 24 hrs by Western blot analysis (reference value: 100%); type: cell-based
[14] = Inhibition of colony formation in human H1975-TM cells harboring EGFR L858R/T790M/C797S mutant at 33 nM incubated for 14 days by crystal violet staining based analysis relative to control; type: functional; conditions: 336 h, time 14 day
H1975-TM [15] = assay: Induction of cell cycle arrest in human H1975-TM cells harboring EGFR L858R/T790M/C797S mutant assessed as accumulation of cells at G0/G1 phase at 5 to 60 nM incubated for 24 hrs by RNase/PI staining based analysis; type: functional; conditions: dose 5-60 nM
[16] = system: Protein cereblon/Epidermal growth factor receptor (Homo sapiens), P00533+Q96SW2 [L858R,T790M,C797S]; assay: PROTAC activity at CRBN/EGFR L858R/T790M/C797S mutant in human H1975-TM cells assessed as induction of EGFR degradation by measuring remaining activity at 3.7 nM incubated for 24 hrs by Western blot analysis (reference value: 100%); type: cell-based
[17] = system: Protein cereblon/Epidermal growth factor receptor (Homo sapiens), P00533+Q96SW2 [L858R,T790M,C797S]; assay: as §2, with “MLN4924” for “MG132”; type: cell-based
[18] = system: Protein cereblon/Epidermal growth factor receptor (Homo sapiens), P00533+Q96SW2 [L858R,T790M,C797S]; assay: PROTAC activity at CRBN/EGFR L858R/T790M/C797S mutant in human H1975-TM cells assessed as induction of EGFR degradation by measuring remaining activity at 11 nM incubated for 24 hrs by Western blot analysis (reference value: 100%); type: cell-based
[19] = target: Epidermal growth factor receptor (Homo sapiens) (UniProt P00533); assay: Inhibition of EGFR signaling in human H1975-TM cells harboring EGFR L858R/T790M/C797S mutant assessed as reduction in AKT activation by Western blot analysis; type: cell-based; conditions: dose 1.2-300 nM
[20] = Cmax in male Sprague-Dawley rat at 5 mg/kg, iv measured after 24 hrs by LC-MS/MS analysis; type: ADME, organism-based; conditions: in vivo
[21] = Toxicity in BALB/c nude mouse xenografted with human H1975-TM cells assessed as lung lesions at 25 to 100 mg/kg, po administered once daily for 31 days by Hematoxylin and eosin staining based analysis; type: organism-based; conditions: in vivo, 744 h, dose 25-100 mg/kg, time 31 day
[22] = MRT (0 to infinity) in male Sprague-Dawley rat at 50 mg/kg, po measured after 24 hrs by LC-MS/MS analysis; type: ADME, organism-based; conditions: in vivo
A549 = assay: Antiproliferative activity against human A549 cells harboring wildtype EGFR assessed as inhibition of cell proliferation incubated for 72 hrs by CCK8 assay; type: functional, cell-based; conditions: A549, 72 h
[23] = Antiproliferative activity against human PC-9-TM cells harboring EGFR exon 19 deletion/T790M/[…] mutant assessed as inhibition of cell proliferation incubated for 72 hrs by CCK8 assay; type: functional, cell-based
[24] = Potency index, ratio of brigatinib IC50 to test compound IC50 for antiproliferative activity against human […] cells harboring EGFR L858R/T790M/C797S mutant assessed as inhibition of cell growth incubated for 72 hrs by CCK-8 assay; type: functional, H1975-TM
H1975-TM [25] = assay: Induction of apoptosis in human H1975-TM cells harboring EGFR L858R/T790M/C797S mutant incubated for 24 hrs by Annexin V-FITC/PI staining based flow cytometric analysis; type: functional, cell-based; conditions: dose 33-100 nM
[26] = Antitumor activity against human H1975-TM cells xenografted in BALB/c nude mouse assessed as tumor growth inhibition at 100 mg/kg, po administered once daily for 31 days relative to control; type: functional; conditions: 744 h, time 31 day, read-out: TGI

For CCS(=O)(=O)n1cc(-c2nc(Nc3ccc(N4CCN(CCCCCCC(=O)Nc5cccc6c5CN(C5CCC(=O)NC5=O)C6=O)CC4)cc3)ncc2C(F)(F)F)c2ccccc21 (stereo not drawn), the Emax [1] was > 95%, the inhibition in vivo at 25 mg/kg [2] was 48.1% and the inhibition [3] was “Dose-Dependent Effect”. The Activity [4] was “Active”, the Activity [5] was 5.8% and the Activity [6] was “Non-Toxic”. For the same compound, the bioavailability [7] was 4.2%, the inhibition (Mus musculus) was “Active” and the Kd [8] was 240 nM. The DC50 [9] was 75.4 nM, the Activity [10] was “Dose-Dependent Effect” and the inhibition (H1975-TM [11]) was “Active”. The Activity [12] was 36.1%, the Activity [13] was 73.6% and the inhibition at 0.033 µM [14] was ~100%. For the same compound, the Activity (H1975-TM [15]) was “Active”, the Activity [16] was 46.6% and the Activity [17] was 51.7%. The Activity [18] was 33.5%, the inhibition [19] was “Dose-Dependent Effect” and the Cmax [20] was 4600 ng/mL. For the same compound, the Activity [21] was “Non-Toxic”, the MRT inf [22] was 21.4 h and the IC50 (A549) was 97.5 nM. For the same compound, the IC50 [23] was 43.5 nM, the “Ratio IC50” value [24] was 55 and the Activity (H1975-TM [25]) was “Dose-Dependent Effect”. For the same compound, the inhibition in vivo at 100 mg/kg [26] was 66.4%.
